According to ChEMBL document CHEMBL3132771, “Machine-assisted synthesis of modulators of the histone reader BRD9 using flow methods of chemistry and frontal affinity chromatography” (Medchemcomm, 2014):
Active and inactive are the calls of the source. No cut-off for these calls is given here.

biological target: Bromodomain-containing protein 4 (Homo sapiens) (UniProt O60885); assay: Binding affinity to BRD4 (unknown origin) at 4 uM by thermal shift assay

Which Activity does the source give for `Cc1ccc(-c2cc(N)c3nnc(C)n3n2)cc1NS(=O)(=O)c1ccc(Cl)c(Cl)c1` here?
The Activity was “Active”.

biological target: T1, Bromodomain-containing protein 9 (Homo sapiens) (UniProt Q9H8M2); assay: Binding affinity to human recombinant biotinylated BRD9 assessed as change in melting temperature at 4 uM by thermal shift assay
T1 sequence (whole entry): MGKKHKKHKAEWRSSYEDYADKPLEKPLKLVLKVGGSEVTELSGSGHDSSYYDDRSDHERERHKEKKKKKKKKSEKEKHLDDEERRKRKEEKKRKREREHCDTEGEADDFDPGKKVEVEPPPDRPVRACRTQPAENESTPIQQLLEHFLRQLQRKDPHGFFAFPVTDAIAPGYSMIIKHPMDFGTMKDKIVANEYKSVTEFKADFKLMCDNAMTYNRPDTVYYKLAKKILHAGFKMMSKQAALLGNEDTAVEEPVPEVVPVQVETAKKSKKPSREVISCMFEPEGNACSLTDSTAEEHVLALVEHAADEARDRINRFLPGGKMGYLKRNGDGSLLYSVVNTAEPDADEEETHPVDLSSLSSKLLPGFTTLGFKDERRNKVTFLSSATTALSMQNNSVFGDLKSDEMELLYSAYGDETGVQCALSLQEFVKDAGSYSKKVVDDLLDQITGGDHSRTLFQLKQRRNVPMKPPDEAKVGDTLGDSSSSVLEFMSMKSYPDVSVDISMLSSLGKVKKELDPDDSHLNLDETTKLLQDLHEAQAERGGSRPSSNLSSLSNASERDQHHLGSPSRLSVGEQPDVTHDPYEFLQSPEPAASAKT

How did the ΔTm turn out when `Cc1ccc(-c2cc(N)c3nnc(C)n3n2)cc1NS(=O)(=O)c1ccc(Cl)c(Cl)c1` was run?
Its ΔTm is 4.3 °C.

For `CCOC(=O)Nc1cc(-c2ccc(C)c(NS(C)(=O)=O)c2)nn2c(C)nnc12`, which ΔTm is on record?
The ΔTm was 8.8 °C.

organism: Homo sapiens; assay: Binding affinity to EP300A (unknown origin) at 4 uM by thermal shift assay

With `Cc1ccc(-c2cc(N)c3nnc(C)n3n2)cc1NS(=O)(=O)c1ccc(Cl)c(Cl)c1` as the compound, how does the Activity read?
The Activity was “Active”.

biological target: T1, Bromodomain-containing protein 9 (Homo sapiens); assay: Binding affinity to human recombinant biotinylated BRD9 at 4 uM after 120 mins by FAC-MS analysis

How did the Activity turn out when `CCOC(=O)Nc1cc(-c2ccc(C)c(NS(C)(=O)=O)c2)nn2c(C)nnc12` was run?
Its Activity is “inactive”.

biological target: T1, Bromodomain-containing protein 9 (Homo sapiens); assay: Binding affinity to human recombinant biotinylated BRD9 assessed as retention volume at 4 uM by FAC-MS analysis

For `Cc1ccc(-c2cc(N)c3nnc(C)n3n2)cc1NS(=O)(=O)c1ccc(Cl)c(Cl)c1`, which Activity is on record?
Its Activity is 1170 µL.

How did the Activity turn out when `CCOC(=O)Nc1cc(-c2ccc(C)c(NS(C)(=O)=O)c2)nn2c(C)nnc12` was run?
The Activity was over 3600 µL.

biological target: T1, Bromodomain-containing protein 9 (Homo sapiens); assay: Binding affinity to human recombinant biotinylated BRD9 by UV spectrophotometric analysis

`CCOC(=O)N(c1cc(-c2cc(N)c3nnc(C)n3n2)ccc1C)S(=O)(=O)c1ccccc1Cl` was tested. Which Activity did it give?
Its Activity is “Active”.

With `Cc1ccc(-c2cc(N)c3nnc(C)n3n2)cc1NS(=O)(=O)c1cccc(Cl)c1` as the compound, how does the Activity read?
The Activity was “Active”.

How did the Activity turn out when `Cc1nnc2c(N)cc(Cl)nn12` was run?
The Activity was “Active”.

Which Activity does the source give for `Cc1ccc(-c2cc(N)c3nnc(C)n3n2)cc1NS(=O)(=O)c1ccc(Cl)c(Cl)c1` here?
Its Activity is “Active”.

biological target: T1, Bromodomain-containing protein 9 (Homo sapiens); assay: Binding affinity to human recombinant biotinylated BRD9 assessed as retention volume at 50 uM by FAC-MS analysis

For `CCOC(=O)Nc1cc(-c2ccc(C)c(NS(C)(=O)=O)c2)nn2c(C)nnc12`, which Activity is on record?
The Activity was 324 µL.
